Values of other authors as cited in patent US20110270212A1, “PHARMACOKINETIC CONTROL FOR OPTIMIZED INTERFERON DELIVERY” (MEDTRONIC, INC., priority 2007, published 2011).

Tests used:
HCV [1] = conditions: across all dosing arms
HCV [2] = conditions: ribavirin combined with interferon-α, genotype 1 population
HCV [3] = conditions: in vivo
HCV [4] = conditions: oral doses up to 4500 mg
[5] = tested on: Hepatitis C virus replication (replicon model); conditions: via protease inhibition
[6] = subcutaneously

CC(C)C(=O)OC[C@H]1O[C@@H](n2ccc(N)nc2=O)[C@](C)(F)[C@@H]1OC(=O)C(C)C [R71278]
antiviral activity (HCV [1]): dose-dependent antiviral activity

NC(=O)c1ncn([C@@H]2O[C@H](CO)[C@@H](O)[C@H]2O)n1 [ribavirin, 1-β-D-ribofuranosyl-1H-1,2,4-triazole-3-carboxamide]
therapeutic effectiveness of the combination (HCV [2]): 29%

[N-]=[N+]=N[C@]1(CO)O[C@@H](n2ccc(N)nc2=O)[C@H](O)[C@@H]1O [R1626, 4′-azidocytidine]
response with pegylated interferon/ribavirin (HCV [3]): good response
tolerability (HCV [4]): generally well-tolerated with increasing adverse events at the highest dose

COc1ccc2c(O[C@@H]3C[C@H]4C(=O)N[C@]5(C(=O)NS(=O)(=O)C6CC6)C[C@H]5/C=C\CCCCN(C)C(=O)[C@@H]4C3)cc(-c3nc(C(C)C)cs3)nc2c1C [TMC435350]
Hepatitis C virus replication in replicon experiments [5]: reduce the amount of Hepatitis C virus replication

interferon-α
dose administered without adverse reactions [6]: up to 300 million IU/m^2
